The values that follow come from patent publication US11028079B2 (ConverGene LLC, priority 2015, dated 2021).

The experiment has as its target T1, BRD4 bromodomains (Homo sapiens, UniProt O60885).
T1 construct: fused on or other part: T7 phage capsid protein (phage-display fusion; the phage DNA is read out by qPCR)
Kind of experiment: BROMOscan bromodomain competition binding assay (DiscoveRx). The conditions noted are these: Kd from 11 compound concentrations ranging from 0 to 10 μM, read-out: BROMOscan Relative Activity. As for the experimental part:
Bromodomain assays were conducted to measure interactions between certain compounds and bromodomains.
The assays were conducted according to BROMOscan protocol from Discover Rx. Briefly, BRD4 bromodomains expressed as a fusion capsid protein of T7 phage were bound to acetylated peptide ligand on a solid phase and competition bindings were performed. T7 phage strains displaying bromodomains were grown in parallel in 24-well blocks in an E. coli host derived from the BL21 strain. E. coli were grown to log-phase and infected with T7 phage from a frozen stock (multiplicity of infection=0.4) and incubated with shaking at 32° C. until lysis (90-150 minutes). The lysates were centrifuged (5,000×g) and filtered (0.2 μm) to remove cell debris. […] The liganded beads were blocked with excess biotin and washed with blocking buffer (SeaBlock (Pierce), 1% BSA, 0.05% Tween 20, 1 mM DTT) to remove unbound ligand and to reduce non-specific phage binding. […] Test compounds were prepared as 1000× stocks in 100% DMSO and subsequently diluted 1:10 in monoethylene glycol (MEG) to create stocks at 100× the screening concentration (resulting stock solution is 10% DMSO/90% MEG). The compounds were then diluted directly into the assays such that the final concentration of DMSO and MEG were 0.1% and 0.9%, respectively. All reactions were performed in polystyrene 96-well plates in a final volume of 0.135 ml. […] The bromodomain concentration in the eluates was measured by qPCR. Data was collected at 11 compound concentrations ranging from 0 to 10 μM. Kd values were then derived from a standard dose-response curve generated with Hill equation (Hill Slope was set to ˜1) and a non-linear least square fit with the Levenberg-Marquardt algorithm. Response=Background+Signal−Background/1+(Kd Hill Slope/Dose Hill Slope)
For the molecule `Cc1noc(C)c1-c1ccc2nc(N3CCCN(CCN(C)C)CC3)nc(NCc3cccc(Cl)c3)c2c1` [Example 32, N-(3-chlorobenzyl)-2-(4-(2-(dimethylamino)ethyl)-1,4-diazepan-1-yl)-6-(3,5-dimethylisoxazol-4-yl)quinazolin-4-amine], the Kd is less than 500 nM.
Regarding `Cc1noc(C)c1-c1ccc2nc(N3CCCN(CCO)CC3)nc(NCc3cccc(Cl)c3)c2c1` [Example 33, 2-(4-(4-((3-chlorobenzyl)amino)-6-(3,5-dimethylisoxazol-4-yl)quinazolin-2-yl)-1,4-diazepan-1-yl)ethanol], the Kd was less than 500 nM.
Turning to `Cc1noc(C)c1-c1ccc2nc(N3CCC(CCN(C)C)CC3)nc(NCc3cccc(Cl)c3)c2c1` [Example 34, N-(3-chlorobenzyl)-2-(4-(2-(dimethylamino)ethyl)piperidin-1-yl)-6-(3,5-dimethylisoxazol-4-yl)quinazolin-4-amine], the Kd is less than 500 nM.
In the case of `Cc1noc(C)c1-c1ccc2nc(N3CCN(C(=O)c4cccnc4)CC3)nc(NCc3cccc(Cl)c3)c2c1` [Example 35, (4-(4-((3-chlorobenzyl)amino)-6-(3,5-dimethylisoxazol-4-yl)quinazolin-2-yl)piperazin-1-yl)(pyridin-3-yl)methanone], the Kd is less than 500 nM.
In the case of `Cc1noc(C)c1-c1ccc2nc(N3CCN(C(=O)CO)CC3)nc(NCc3cccc(Cl)c3)c2c1` [Example 36, 1-(4-(4-((3-chlorobenzyl)amino)-6-(3,5-dimethylisoxazol-4-yl)quinazolin-2-yl)piperazin-1-yl)-2-hydroxyethanone], the Kd was less than 500 nM.
For `Cc1noc(C)c1-c1ccc2nc(N3CCN(C(=O)CN(C)C)CC3)nc(NCc3cccc(Cl)c3)c2c1` [Example 37, 1-(4-(4-((3-chlorobenzyl)amino)-6-(3,5-dimethylisoxazol-4-yl)quinazolin-2-yl)piperazin-1-yl)-2-(dimethylamino)ethanone] the value was less than 500 nM; for `Cc1noc(C)c1-c1ccc2c(NCc3cccc(Cl)c3)nc(Cl)nc2c1` [Example 38, 2-chloro-N-(3-chlorobenzyl)-7-(3,5-dimethylisoxazol-4-yl)quinazolin-4-amine], 500 to 5000 nM.
For `Cc1noc(C)c1-c1ccc2c(NCc3cccc(Cl)c3)nc(N3CCN(CCN(C)C)CC3)nc2c1` [Example 39, N-(3-chlorobenzyl)-2-(4-(2-(dimethylamino)ethyl)piperazin-1-yl)-7-(3,5-dimethylisoxazol-4-yl)quinazolin-4-amine] the value was 500 to 5000 nM; for `Cc1noc(C)c1-c1ccc2c(NCc3cccc(Cl)c3)nc(N3CCN(CCO)CC3)nc2c1` [Example 40, 2-(4-(4-((3-chlorobenzyl)amino)-7-(3,5-dimethylisoxazol-4-yl)quinazolin-2-yl)piperazin-1-yl)ethanol], 500 to 5000 nM; for `Cc1noc(C)c1-c1ccc2nc(N3CCC(CN(C)C)CC3)nc(NCc3cccc(Cl)c3)c2c1` [Example 41, N-(3-chlorobenzyl)-2-(4-((dimethylamino)methyl)piperidin-1-yl)-6-(3,5-dimethylisoxazol-4-yl)quinazolin-4-amine], less than 500 nM.
With `Cc1noc(C)c1-c1ccc2nc(-n3cc(CCO)cn3)nc(NCc3cccc(Cl)c3)c2c1` [Example 42, 2-(1-(4-((3-chlorobenzyl)amino)-6-(3,5-dimethylisoxazol-4-yl)quinazolin-2-yl)-1H-pyrazol-4-yl)ethanol], the Kd was less than 500 nM.
As for `Cc1noc(C)c1-c1ccc2cc(N3CCN(CCN(C)C)CC3)nc(NCc3cccc(Cl)c3)c2c1` [Example 43, N-(3-chlorobenzyl)-3-(4-(2-(dimethylamino)ethyl)piperazin-1-yl)-7-(3,5-dimethylisoxazol-4-yl)isoquinolin-1-amine], the Kd was 500 to 5000 nM.
As to `Cc1noc(C)c1-c1ccc2cc(N3CCN(CCO)CC3)nc(NCc3cccc(Cl)c3)c2c1` [Example 44, 2-(4-(1-((3-chlorobenzyl)amino)-7-(3,5-dimethylisoxazol-4-yl)isoquinolin-3-yl)piperazin-1-yl)ethanol], the Kd was 500 to 5000 nM.
For `Cc1noc(C)c1-c1ccc2nc(N3CCN(CC(C)O)CC3)nc(NCc3cccc(Cl)c3)c2c1` (centres unmarked) [Example 45, 1-(4-(4-((3-chlorobenzyl)amino)-6-(3,5-dimethylisoxazol-4-yl)quinazolin-2-yl)piperazin-1-yl)propan-2-ol] the value was less than 500 nM; for `Cc1noc(C)c1-c1ccc2nc(N3CCN(C[C@@H](C)O)CC3)nc(NCc3cccc(Cl)c3)c2c1` [Example 46, (R)-1-(4-(4-((3-chlorobenzyl)amino)-6-(3,5-dimethylisoxazol-4-yl)quinazolin-2-yl)piperazin-1-yl)propan-2-ol], less than 500 nM; for `Cc1noc(C)c1-c1ccc2nc(N3CCN(C[C@H](C)O)CC3)nc(NCc3cccc(Cl)c3)c2c1` [Example 47, (S)-1-(4-(4-((3-chlorobenzyl)amino)-6-(3,5-dimethylisoxazol-4-yl)quinazolin-2-yl)piperazin-1-yl)propan-2-ol], less than 500 nM.
The value for `Cc1noc(C)c1-c1ccc2nc(-c3cnn(CCO)c3)nc(NCc3cccc(Cl)c3)c2c1` [Example 48, 2-(4-(4-((3-chlorobenzyl)amino)-6-(3,5-dimethylisoxazol-4-yl)quinazolin-2-yl)-1H-pyrazol-1-yl)ethanol] was less than 500 nM; that for `Cc1noc(C)c1-c1ccc2nc(-c3cnn(C)c3)nc(NCc3cccc(Cl)c3)c2c1` [Example 49, N-(3-chlorobenzyl)-6-(3,5-dimethylisoxazol-4-yl)-2-(1-methyl-1H-pyrazol-4-yl)quinazolin-4-amine] was less than 500 nM; that for `Cc1noc(C)c1-c1ccc2nc(-c3cnn(CC(N)=O)c3)nc(NCc3cccc(Cl)c3)c2c1` [Example 50, 2-(4-(4-((3-chlorobenzyl)amino)-6-(3,5-dimethylisoxazol-4-yl)quinazolin-2-yl)-1H-pyrazol-1-yl)acetamide] was less than 500 nM.
For `Cc1noc(C)c1-c1ccc2c(NCc3cccc(Cl)c3)nc(-c3cnn(CC(N)=O)c3)nc2c1` [Example 51, 2-(4-(4-((3-chlorobenzyl)amino)-7-(3,5-dimethylisoxazol-4-yl)quinazolin-2-yl)-1H-pyrazol-1-yl)acetamide] the value was 500 to 5000 nM; for `Cc1noc(C)c1-c1ccc2nc(N3CCN(CC(=O)N(C)C)CC3)nc(NCc3cccc(Cl)c3)c2c1` [Example 52, 2-(4-(4-((3-chlorobenzyl)amino)-6-(3,5-dimethylisoxazol-4-yl)quinazolin-2-yl)piperazin-1-yl)-N,N-dimethylacetamide], less than 500 nM.
For `CNC(=O)CN1CCN(c2nc(NCc3cccc(Cl)c3)c3cc(-c4c(C)noc4C)ccc3n2)CC1` [Example 53, 2-(4-(4-((3-chlorobenzyl)amino)-6-(3,5-dimethylisoxazol-4-yl)quinazolin-2-yl)piperazin-1-yl)-N-methylacetamide], the Kd is less than 500 nM.
For `Cc1noc(C)c1-c1ccc2nc(N3CCN(CC(N)=O)CC3)nc(NCc3cccc(Cl)c3)c2c1` [Example 54, 2-(4-(4-((3-chlorobenzyl)amino)-6-(3,5-dimethylisoxazol-4-yl)quinazolin-2-yl)piperazin-1-yl)acetamide] the value was less than 500 nM.
For `Cc1noc(C)c1-c1ccc2nc(N3CCN(C(=O)CN)CC3)nc(NCc3cccc(Cl)c3)c2c1` [Example 55, 2-amino-1-(4-(4-((3-chlorobenzyl)amino)-6-(3,5-dimethylisoxazol-4-yl)quinazolin-2-yl)piperazin-1-yl)ethanone] the value was less than 500 nM; for `Cc1noc(C)c1-c1ccc2nc(-c3cnn(CC(C)(C)O)c3)nc(NCc3cccc(Cl)c3)c2c1` [Example 56, 1-(4-(4-((3-chlorobenzyl)amino)-6-(3,5-dimethylisoxazol-4-yl)quinazolin-2-yl)-1H-pyrazol-1-yl)-2-methylpropan-2-ol], less than 500 nM.
For `Cc1noc(C)c1-c1ccc2nc(-c3cnn(CCC#N)c3)nc(NCc3cccc(Cl)c3)c2c1` [Example 57, 3-(4-(4-((3-chlorobenzyl)amino)-6-(3,5-dimethylisoxazol-4-yl)quinazolin-2-yl)-1H-pyrazol-1-yl)propanenitrile] the value was less than 500 nM; for `COCCn1cc(-c2nc(NCc3cccc(Cl)c3)c3cc(-c4c(C)noc4C)ccc3n2)cn1` [Example 58, N-(3-chlorobenzyl)-6-(3,5-dimethylisoxazol-4-yl)-2-(1-(2-methoxyethyl)-1H-pyrazol-4-yl)quinazolin-4-amine], less than 500 nM; for `Cc1noc(C)c1-c1ccc2nc(-c3cnn(CC#N)c3)nc(NCc3cccc(Cl)c3)c2c1` [Example 59, 2-(4-(4-((3-chlorobenzyl)amino)-6-(3,5-dimethylisoxazol-4-yl)quinazolin-2-yl)-1H-pyrazol-1-yl)acetonitrile], less than 500 nM.
For the molecule `Cc1noc(C)c1-c1ccc2nc(-c3cnn(CCN(C)C)c3)nc(NCc3cccc(Cl)c3)c2c1` [Example 60, N-(3-chlorobenzyl)-2-(1-(2-(dimethylamino)ethyl)-1H-pyrazol-4-yl)-6-(3,5-dimethylisoxazol-4-yl)quinazolin-4-amine], the Kd is less than 500 nM.
